This is an account of results in patent US9636356B2, “Nanoparticle compositions of antibacterial compounds and other uses thereof” (JAWAHARLAL NEHRU CENTRE FOR ADVANCED SCIENTIFIC RESEARCH, priority 2012, dated 2017).

The test system of this experiment is vancomycin resistant E. faecium (VRE) (ATCC 51559). As to the kind of experiment: Antibacterial activity (MIC), modified micro-dilution broth. Format: cell-based, Vancomycin resistant Enterococcus faecium. Conditions: 24 h, read-out: MIC VRE.

Procedure: E. coli is cultured in Luria Bertani broth (10 g of tryptone, 5 g of yeast extract, and 10 g of NaCl in 1000 mL of sterile distilled water (pH −7) while S. aureus, P. aeruginosa and MRSA are grown in Yeast-dextrose broth (1 g of beef extract, 2 g of yeast extract, 5 g of peptone and 5 g of NaCl in 1000 mL of sterile distilled water). For E. faecium and VRE, Brain Heart Infusion broth (BHI) is used. K. pneumoniae is grown in nutrient media (3 g of beef extract and 5 g of peptone in 1000 mL of sterile distilled water). For solid media 5% agar is used along with above mentioned composition. The bacterial samples are freeze dried and stored at −80° C. 5 μl of these stocks are added to 3 mL of the nutrient broth and the culture is grown for 6 h at 37° C. prior to the experiments.
Antibacterial activity is determined with the slight modifications of standardized protocols. Water-soluble Q-PIBMI derivatives are assayed in a modified micro-dilution broth format. […] Bacteria, to be tested, grown for 6 h in the suitable media containing ˜10^9 cfu/mL (determined by spread plating method), which is then diluted to 10^5 cfu/mL using nutrient media. […] MIC value is determined by taking the average of triplicate O.D. values for each concentration and plotting it against concentration using Origin Pro 8.0 software. […]

On to `CN[C@H](CC(C)C)C(=O)N[C@H]1C(=O)N[C@@H](CC(N)=O)C(=O)N[C@H]2C(=O)N[C@H]3C(=O)N[C@H](C(=O)N[C@H](C(=O)O)c4cc(O)cc(O)c4-c4cc3ccc4O)[C@H](O)c3ccc(c(Cl)c3)Oc3cc2cc(c3O[C@@H]2O[C@H](CO)[C@@H](O)[C@H](O)[C@H]2O[C@H]2C[C@](C)(N)[C@H](O)[C@H](C)O2)Oc2ccc(cc2Cl)[C@H]1O` [Vamcomycin], for which the minimal inhibitory concentration (MIC) is greater than 156 µg/mL.
